For data set [1] the following is noted: compared to intravenous administration; extensive first-pass effect; cited from earlier work.
Data set [2] relates to CYP3A4/5. The following applies: strong index inhibitor of CYP3A4/5; cited from earlier work.
In another data set the test system is P-gp. The note with it: inhibitor for P-gp; cited from earlier work.
Data set [3] is classed as in vivo, human.
Another data set can be described thus: Safety assessments. Type of data set: in vivo, human. The note with it: single dose of milvexian alone and in combination with itraconazole or diltiazem.
Data set [4] relates to CYP3A4/5. The following applies: preclinical results; ref unpublished data; cited from earlier work.
The next data set has as its system P-glycoprotein (P-gp). The following applies: preclinical results; ref unpublished data; cited from earlier work.
Data set [5] relates to arterial and venous thrombosis. The note with it: preclinical models of arterial and venous thrombosis; cited from earlier work.
Where [6] appears, read: co-administration of itraconazole.

Like-named read-outs stand apart in the source and are kept apart here. Where only a bound is given, the exact number is not on record here.

`COc1ccc([C@@H]2Sc3ccccc3N(CCN(C)C)C(=O)[C@@H]2OC(C)=O)cc1` [Diltiazem]: the absolute oral bioavailability entry in data set [1] is listed as “about 40%”.

On to `CCC(C)n1ncn(-c2ccc(N3CCN(c4ccc(OCC5COC(Cn6cncn6)(c6ccc(Cl)cc6Cl)O5)cc4)CC3)cc2)c1=O` (stereo not shown) [Itraconazole], for which the “increase in the AUC of sensitive substrates” value in the data set on CYP3A4/5 [2] is at least 10 fold. Also, the “increase in the AUC of digoxin” value in the data set on P-gp was over 1.25 fold.

On to `C[C@@H]1CCC[C@H](n2cnc(-c3cc(Cl)ccc3-n3cc(Cl)nn3)cc2=O)c2cc(ccn2)-c2c(cnn2C(F)F)NC1=O` [Milvexian], for which, in data set [3] (co-administration of diltiazem), the “AUC(0–T) higher compared with milvexian alone” value turned out to be 38%, the “AUC(INF) higher compared with milvexian alone” value came out at 38%, the “C24 higher compared with milvexian alone” value was determined as 64% and the “mean Cmax higher compared with milvexian alone” value is reported as 9.6%. Besides, the “mean T1/2 longer compared with milvexian alone” value in data set [3] (co-administration of diltiazem) is reported as about 1.1 fold. In data set [3] (setting [6]), the “AUC(0–T) higher compared with milvexian alone” value turned out to be 2.5 fold, the “AUC(INF) higher compared with milvexian alone” value is on record as 2.5 fold, the “C24 higher compared with milvexian alone” value came to 3.8 fold and the “mean T1/2 longer compared with milvexian alone” value is on record as “approximately 1.5 fold”. For the same compound, the “effect of co-administration on median Tmax of milvexian” value in data set [3] (co-administration of itraconazole or diltiazem) is on record as “not altered”. Moreover, in data set [3] (diltiazem co-administration), the “impact of a moderate CYP3A inhibitor on milvexian exposure” value is “less than 2.5 fold”. In data set [3] (itraconazole co-administration), the “impact of a strong CYP3A inhibitor on milvexian exposure” value was under 5 fold. In addition, in the data set “Safety assessments”, the “deaths or serious AEs during the study” value is recorded as “no deaths or serious AEs”. Further, the “substrate of CYP3A4/5” value with CYP3A4/5 [4] is recorded as “substrate of CYP3A4/5”. The “substrate for P-glycoprotein” value with P-glycoprotein (P-gp) was “substrate for P-glycoprotein”. Also, the antithrombotic activity entry in data set [5] is recorded as “demonstrated antithrombotic activity while preserving homeostasis”.

Values taken from PMC9381674 (Cardiology and Therapy, 2022).
